Article PMC3403540, “Active Hydrophilic Components of the Medicinal Herb Salvia miltiorrhiza (Danshen) Potently Inhibit Organic Anion Transporters 1 (Slc22a6) and 3 (Slc22a8)” (Evidence-based Complementary and Alternative Medicine : eCAM, 2012)

What was measured:
[1] = biological target: T1, mOat1 (Mus musculus, UniProt Q8VC69); assay: Inhibition of mOat1-mediated [3H]PAH uptake in CHO-mOat1 cells (cell accumulation assay); assay type: cell-based, murine; conditions: for Estimated α value from mixed inhibition model analysis, mOat1: 5 μM PAH for 2 min, mean, α > 1 indicates competitive inhibition; for Ki / inhibition at 1000 µM: 5 μM [3H]PAH; for Ki: 2 min, CHO-mOat1, mean ± S.E.M. (n = 3), from IC50 via Cheng-Prusoff, read-out: Estimated K i for mOat1-mediated transport; for inhibition at 1000 µM: 1 mM (1000 μM) inhibitor, 10 min, CHO-mOat1 cells, read-out: inhibition of mOat1-mediated PAH uptake; for mode of inhibition of mOat1-mediated transport: mixed inhibition model, PAH substrate; for K i ratio (mOat1/mOat3): ratio of Ki on mOat1 to Ki on mOat3
T1 construct: expressed in transfected cells; host or cells: CHO (Chinese hamster ovary), stably transfected (CHO-mOat1)
T1 sequence (Q8VC69 1-545): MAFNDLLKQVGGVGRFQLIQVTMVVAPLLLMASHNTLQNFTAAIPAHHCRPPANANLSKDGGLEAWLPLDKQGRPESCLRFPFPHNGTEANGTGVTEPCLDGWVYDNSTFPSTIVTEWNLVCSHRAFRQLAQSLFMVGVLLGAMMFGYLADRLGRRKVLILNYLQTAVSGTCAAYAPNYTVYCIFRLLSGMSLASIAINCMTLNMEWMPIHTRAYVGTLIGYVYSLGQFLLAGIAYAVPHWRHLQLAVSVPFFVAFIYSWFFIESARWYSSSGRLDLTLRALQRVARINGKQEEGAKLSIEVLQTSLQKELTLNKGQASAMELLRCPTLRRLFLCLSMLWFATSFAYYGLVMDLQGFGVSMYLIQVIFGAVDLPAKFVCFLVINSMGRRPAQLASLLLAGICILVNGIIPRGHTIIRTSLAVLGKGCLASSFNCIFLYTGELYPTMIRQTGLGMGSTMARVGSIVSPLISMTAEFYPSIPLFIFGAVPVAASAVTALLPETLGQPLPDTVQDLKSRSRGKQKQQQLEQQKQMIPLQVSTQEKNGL
Procedure: Derivation of the stably transfected Chinese hamster ovary (CHO) cell lines expressing mOat1 (CHO-mOat1), mOat3 (CHO-mOat3), and the empty vector (FRT) transfected control cell line (CHO-FRT) was described previously.
Cell transport assay procedures were adapted from those previously published. In brief, 2 × 10^5 cells/well were seeded in 24-well tissue culture plates and grown in the absence of antibiotics for 48 hr. On the day of the experiment, cells were equilibrated with transport buffer for 10 min (500 μL of Hanks' balanced salt solution containing 10 mM HEPES, pH 7.4). […] After incubation, cells were immediately rinsed three times with ice-cold transport buffer, lysed, and analyzed via liquid scintillation counting. Uptake values were normalized to corresponding total protein content in cell lysates as determined by the Bradford method. Substrate accumulation is reported as picomoles of substrate per milligram protein. […] Kinetic calculations were performed using GraphPad Prism Software version 5.0 (GraphPad Software Inc., San Diego, CA, USA). Michaelis constant (K m) values were calculated by nonlinear regression using the Michaelis-Menten model. […] In this study, three curves were constructed (no inhibitor, plus two selected inhibitor concentrations) with uptake of substrate plotted as a function of its concentration for each condition. […] The parameter, α, can then be used to determine the mode of inhibition. When α is very large (α > 1), it indicates competitive inhibition. […] Results were confirmed by repeating all experiments at least three times with triplicate wells for each data point in every experiment.
Figure 3 Michaelis-Menten kinetics of PAH transport in CHO-mOat1 cells. In order to calculate K i values for mOat1, the K m value for PAH needed to be determined in the CHO-mOat1 cell system. […] The corrected curve (closed circles) was obtained by subtracting the nonspecific background uptake as measured in the CHO-FRT cells from CHO-mOat1 accumulation to allow analysis of mOat1-mediated activity. Experiments were repeated three times in triplicate, and Michaelis constant (K m) values were calculated by nonlinear regression using the Michaelis-Menten model. […] Graph shown is from a representative experiment with values plotted as mean ± S.D. (n = 3).
Figure 2 Inhibition profile of mOat1 and mOat3. […] (b) Inhibition of mOat3-mediated uptake of [^3H]ES (1 μM) by LSA, PCA, RMA, SAA, SAB, TSL, and probenecid (1000 μM) was measured in the CHO-mOat3 cells (10 min). […] Values are mean ± S.D. of triplicate values. ***denotes P < 0.001 as determined by one-way ANOVA followed by Dunnett's t-test.
Figure 4 K i determination for LSA, RMA, and SAA in the CHO-mOat1 cell line. […] (5 μM) in CHO-mOat1 cells was measured in the presence of increasing concentrations (10^−7 to 5 × 10^−4 M) of LSA, RMA, and SAA. Data were corrected for nonspecific background measured in the CHO-FRT cells prior to kinetic analysis. K i values were determined with non-linear regression and the “one-site competition” model using GraphPad Prism software. Graphs shown are from representative experiments with values plotted as mean ± S.D. (n = 3).

[2] = set-up: method as in PMID 15866491; conditions: healthy humans, i.v. dosing of a Danshen product; cited from earlier work
[3] = rat plasma; cited from earlier work
[4] = rats, cited from earlier work

| Compound | Estimated α value from mixed inhibition model analysis, mOat1 [1] | Ki [1] | inhibition at 1000 µM [1] | mode of inhibition of mOat1-mediated transport [1] | K i ratio (mOat1/mOat3) [1] | Cmax [2] | plasma protein binding [3] | increase of AUC on spiking additional SAA into Danshen preparations [4] | reduction of clearance on spiking additional SAA into Danshen preparations [4] | unbound renal clearance relative to glomerular filtration rate ([4]; fold greater than the glomerular filtration rate) |
| --- | --- | --- | --- | --- | --- | --- | --- | --- | --- | --- |
| O=C(/C=C/c1ccc(O)c2c1[C@H](C(=O)O)[C@@H](c1ccc(O)c(O)c1)O2)O[C@H](Cc1ccc(O)c(O)c1)C(=O)O [LSA, lithospermic acid] | 6.7 × 10^11 | 14.9 ± 4.9 µM | 70 to 85% | competitive | 0.48 | 2.1 µM | – | – | – | – |
| O=C(O)C(O)Cc1ccc(O)c(O)c1 (stereo not shown) [TSL, tanshinol] | – | – | 70 to 85% | – | – | – | 25% | 26.7% | 32.9% | ~ 5 X |
| O=C(/C=C/c1ccc(O)c(O)c1)O[C@H](Cc1ccc(O)c(O)c1)C(=O)O [RMA, rosmarinic acid] | 1.3 × 10^12 | 5.5 ± 2.2 µM | > 95% | competitive | 1.29 | 6.7 µM | – | – | – | – |
| O=C(/C=C/c1ccc(O)c(O)c1/C=C/c1ccc(O)c(O)c1)O[C@H](Cc1ccc(O)c(O)c1)C(=O)O [SAA, salvianolic acid A] | 2.6 × 10^14 | 4.9 ± 2.2 µM | > 95% | competitive | 0.23 | – | – | – | – | – |
